Read-outs that look alike come from different tables or passages of the source. Marks after values point to notes of the source that are not given here.
Legend:
[1] = system: Isolate HIV-1/IV17 of type 1 human immunodeficiency virus; test: Viability of MT-4 cells acutely infected with HIV-1; assay type: cell-based; settings: day 7
Protocol: Study was carried out on the culture of human lymphoblastoid cells MT-4. Isolate HIV-1/IV17 of type 1 human immunodeficiency virus from the collection of the D.I.Ivanovsky Institute for Virology was used in experiment. The test compounds of general formula (I): III, VI, VII were introduced into cellular culture at concentrations 1.0; 0.1 and 0.01 µg/ml. The reference drug Azidothymidine was introduced at a dose 0.05 µM/ml. The compounds were introduced into the culture of MT-4 cells at a dose 1000 TCD50 one hour prior to virus introduction. Viability of MT-4 cells was estimated by day 7 of experiment.
Viability of cells was the main efficacy parameter of the test compounds.

[2] = system: Strain Aichi of type A human influenza virus; assay type: in vivo; settings: for Survival rate in percent: series with Control - 2 (34.5); for Protection degree in percent: series with Control - 2
[3] = system: [C^14]-arachidonic acid; test: Metabolism of [C^14]-arachidonic acid in pulmonary tissue homogenate of treated mice; assay type: in vivo, CBA male mice; settings: CBA mice lung homogenate; 50 µg/kg for three days
Protocol: Studies were carried out on CBA male mice fed a standard vivarium ration. […] Then animals were sacrified, their lungs were taken out, frozen in liquid nitrogen, homogenized in a glass homogenizer manufactured by the Wheaton company (U.S.A.) at +4°C in 10 volumes 0.05 M Tris-HCl buffer. […] Densitometry of the autoradiochromatograms obtained on the X-ray films X-Omat AR (Kodak, U.S.A.) and HS 11 (ORWO, Germany) were performed on the KS 3 densiscan (Kipp and Zonnen, Holland). Quantative analysis of individual eucosanoids was carried out using radiometry of the fractions obtained with high performance liquid chromatography (the Gilson company HPLC-system, France; the Du Pont company ZORBAX C8 column, U.S.A.) and with elution of spots on TLC-plates.

[4] = system: white mongrel male rats; test: Paw edema induced by Freund's complete adjuvant; assay type: in vivo
Protocol: Experiment was carried out on white mongrel male rats weghing 280-300 g. The model of paw edema induced by Freund's complete adjuvant (FCA), was reproduced according to the method of Ezamuzie and Umezurike [Ezamuzie Ch., Umezurike C.C. Effect of histamine H2-receptor antagonists on acute inflammatory of the rat paw oedema. J. Pharmacol. (1989), Vol. 41, pp. 261-265]. Paw volume measurement was done using a plethysmograph (Ugo Basile). Inhibition of inflammatory reaction expressed in percent, as calculated according to the formula: 100-[(R-L(exper.))/(L):(R-L(control))/(L)x100](%) [formula] where R - the right paw volume, L - the left paw volume.
Each group included 10 animals.
Group of animals: • Group 1 - control, animals were administered 0.5 ml of 1% starch solution. • Group 2 - animals were administered the compound XLVIII. • Group 3 - animals were administered the compound III. • Group 4 - animals were administered Naproxene.

[5] = system: mongrel male rats; settings: po, 96 h
Protocol: (§1) Hypolipidemic activity of the compounds of general formula (I) was studied on the model of experimental hyperlipidemia [Arichi H., Kumura H.O. Effects of stibens compounds of roots of polygonum cuspidatium on the lipid metabolism. […] Each group of animals included 10 rats. […] Blood samples were taken for analysis 18 hours after the last administration of the test substances during which period food was taken away from rats.
(§2) The following parameters were determined: total cholesterol (total CS); high density lipoprotein cholesterol (HDL-CS); low density lipoprotein cholesterol and very low density lipoprotein cholesterol (LDL-CS and VLDL-CS); triglycerides (TG). Blood serum CS level was determined according to the Ilk method [Biochemical examination in the clinic. […] HDL-CS level was measured in supernatant following heparine-manganese precipitation of LDL+VLDL [Titov V.N., Brener E.D., Khaltaiev N.G., Zadoya A.A., Tvorogova M.G. A method and diagnostic significance of cholesterol level study in α-lipoproteins. […] LDL-CS level determination was carried out by calculation according to the formula presented in the work Friedwald W.T. [Friedwald W.T., Levy K.J., Leus R. Fat transport in lipoproteins: an integrated approach to mechanism and disorders.
(§3) To assess the effect of the test compounds on the ratio of atherogenic and antiatherogenic blood serum lipoproteins, cholesterol index (Kcs) was calculated according to the formula presented in the work [Klimov A.N., Nikulcheva N.G. Lipoproteins, dylipoproteinemias and atherosclerosis.
(§4) Blood serum TG level was determined using the conventional method [Friedwald W.T., Levy R.I., Fredrickson D.S. Estimation of concentration of low-density lipoprotein cholesterol in plasma, without use of preparative ultracentrifuge.

[6] = system: mongrel guinea-pigs; test: Food anaphylaxis (active anaphylactic shock) in OVA-sensitized guinea pigs; settings: oral 3 days before provoking anaphylaxis, 50 µg/kg
[7] = system: lipid peroxidation (LP) products; test: Antioxidant activity in vivo: acute toxic hepatic lesion with CCl4; settings: rats, CCl4 3 days; for Liver, MDA, nM/mg of tissue / Liver, diene conjugates, E232/mg of tissue / Liver, diene ketones, trienes E278/mg of tissue: intragastral
Protocol: Antioxidant activity was studied in an in vivo experiment on the model of acute toxic hepatic lesion with carbon quadrichloride (CCl4).
Experiment was carried out on 40 mongrel male rats with initial body mass 190-200 g fed a standard vivarium ration. Each group included 10 animals. Hepatic lesion (experimental hepatitis) was induced in animals by intragastral administration of 0.25 ml per 100 g of body mass CCl4 in the form of 50% solution in vaseline oil for 3 days [Vengerovsky A.I., Chuchalin V.S., Pauls O.V., Saratikov A.S. Effect of hepatoprotectors on lipid metabolism in hepatitis induced by Ccl4. Bulletin of Experimental Biology (1987), No 4, pp. 430-432]. […] Animals of the control group were administered CCl4 as described above (group 2). Intact animals were orally given normal saline in an equivalent amount (group 1).
The content of primary lipid peroxidation (LP) products - diene conjugates, diene ketones and trienes - were determined using the published method [Volchegorsky I.A., Nalimov A.G., Yarovinsky B.G., Lifshits R.I. Comparison of different approaches to determining lipid peroxidation products in heptane-isopropanolic blood extracts. Voprosy Meditsinskoy Chimii (Problems of Medical Chemistry) (1989),No 1, pp. 127-131]. Content calculation of LP products was done correlating the values of respective extinctions with 1 ml of test sample.
The amount of LP final product - malonic dialdehyde (MDA) - was determined by the test with thiobarbituric acid (TBA) [Korobeinikova E.N. Modification of lipid peroxidation products in the reaction with thiobarbituric acid. Laboratornoye delo (Laboratory Matter) (1989), No 7, pp. 8-10]. Concentration of TBA-active product was calculated using regression equation. MDA content in the liver of experimental animals was assessed using the modified method [Stalnaya I.D., Garishvili T.G. The method of determining malonic dialdehyde using thiobarbituric acid. In: Modem methods in biochemistry. Moscow, Meditsina publishers. (1977), pp. 66-69], performing preliminary extraction of lipids according to Folch [Cates M. Technology of Lipidology. Moscow, Mir publishers (1975), pp. 74-76].

[8] = system: mongrel male rats; test: Hypolipidemic activity: experimental hyperlipidemia (atherogenic load); settings: atherogenic diet, oral last four days, 50 µg/kg;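 further: serum drawn 18 h after the final dose from rats deprived of food over that interval, groups of 10 animals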
Protocol: as §1, §2, §3, §4

Molecule: O=C(O)CCCC(=O)NCCc1c[nH]cn1 [compound III, N-GLUTARYLHISTAMINE]
- protective effect against cytodestructive HIV-1 effect (viability of MT-4 cells) ([1]; 1.0 and 0.1 µg/ml): comparable with the effect of the reference drug Azidothymidine
- viability at 0.01 µg/mL ([1]; Human immunodeficiency virus 1, MT4, 168 h, 0.01 µg/ml, series 1 (infected cells 10-17, non-infected 90), read-out: Viability of cells in percent): 18%
- viability at 0.1 µg/mL ([1]; Human immunodeficiency virus 1, MT4, 168 h, 0.1 µg/ml, series 1 (infected cells 10-17, non-infected 90), read-out: Viability of cells in percent): 39%
- viability at 1 µg/mL ([1]; Human immunodeficiency virus 1, MT4, 168 h, 1.0 µg/ml, series 1 (infected cells 10-17, non-infected 90), read-out: Viability of cells in percent): 68%
- MLT ([2]; series with Control - 2 (9.1), 50 µg/kg orally, 3 days before and 10 days following infection): 10.1 days
- MLT, days ([2]; series with Control - 2 (9.1), 500 µg/kg orally, 3 days before and 10 days following infection): 11.5*^2 days
- Survival rate in percent ([2]; 50 µg/kg orally): 86.6*^2%
- Survival rate in percent ([2]; 500 µg/kg orally): 76.6*^2%
- Protection degree in percent ([2]; 50 µg/kg orally): 52.1%
- Protection degree in percent ([2]; 500 µg/kg orally): 42.2%
- 5-HETE+HHT, percent of AA conversion [3]: 13.64 ± 0.26% of AA conversion
- 6-keto-PGF1α, percent of AA conversion [3]: 7.95 ± 0.28% of AA conversion
- 12-, 15-HETE, percent of AA conversion [3]: 23.82 ± 0.82% of AA conversion
- PGE2, percent of AA conversion [3]: 3.07 ± 0.11% of AA conversion
- PGF2α, percent of AA conversion [3]: 8.05 ± 0.15% of AA conversion
- Phospholipids, percent of AA conversion [3]: 7.41 ± 0.25% of AA conversion
- TXB2, percent of AA conversion [3]: 5.76 ± 0.24% of AA conversion
- Unmetabolized AA, percent of AA conversion [3]: 15.32 ± 1.56% of AA conversion
- Volume of paws (conditional units) Right [4]: 1.85 ± 0.62 conditional units
- Volume of paws (conditional units) left [4]: 1.25 ± 0.34 conditional units
- HDL-CS ([5]; 0.05 mg/kg): 46,1±2,8**^A
- Kcs ([5]; 0.05 mg/kg): 0,9±0,04***^A
- LDL-CS+ VLDL-CS ([5]; 0.05 mg/kg): 41,7±3,1***^A
- Total CS ([5]; 0.05 mg/kg): 87,8±2,8*^A
- Triglycerides ([5]; 0.05 mg/kg): 136,4±9,7
- HDL-CS ([5]; 0.5 mg/kg): 53,1±6,2*^A
- Kcs ([5]; 0.5 mg/kg): 0,62±0,05***^A
- LDL-CS+ VLDL-CS ([5]; 0.5 mg/kg): 33,1±2,9***^A
- Total CS ([5]; 0.5 mg/kg): 86,2±5,6
- Triglycerides ([5]; 0.5 mg/kg): 90,0±6,7***^A
- Lethality in percent [6]: 6.7** percent
- Blood serum, MDA, nM/ml ([7]; intragastral 3 days with CCl4, 50 µg/kg): 4.05 ± 0.198*^2 nM/ml
- Blood serum, MDA, nM/ml ([7]; intragastral 3 days with CCl4, 500 µg/kg): 3.89 ± 0.11**^2 nM/ml
- Liver, MDA, nM/mg of tissue ([7]; 50 µg/kg): 4.98 ± 0.13**^2 nM/mg of tissue
- Liver, diene conjugates, E232/mg of tissue ([7]; 50 µg/kg): 16.25 ± 0.61 E232/mg of tissue
- Liver, diene ketones, trienes E278/mg of tissue ([7]; 50 µg/kg): 8.42 ± 0.25**^2 E278/mg of tissue
- Liver, MDA, nM/mg of tissue ([7]; 500 µg/kg): 5.01 ± 0.17**2 nM/mg of tissue
- Liver, diene conjugates, E232/mg of tissue ([7]; 500 µg/kg): 15.89 ± 0.38 E232/mg of tissue
- Liver, diene ketones, trienes E278/mg of tissue ([7]; 500 µg/kg): 8.24 ± 0.19*^2 E278/mg of tissue

Molecule: γ-L-glutamylhistamine [compound XLIV]
- HDL-CS ([8]; blood): 47,3±1,1***^A
- LDL-CS+ VLDL-CS ([8]; blood): 37,4±1,1***^A
- Total CS ([8]; blood): 84,7±3,0**^A
- Triglycerides ([8]; blood): 85,0±6,3***^A
- Kcs ([8]; cholesterol index): 0,79±0,02***^A

— patent EP2229935A1, “Peptide derivatives or pharmaceutically acceptable salts thereof, method for producing the same, use of said derivatives and pharmaceutical composition” (Nebolsin, Vladimir Evgenievich, priority 1997, dated 1999)
